{
  "source": "patent US7906488B2",
  "about": "“Sphingolipids in treatment and prevention of steatosis and of steatosis or of hepatotoxicity and its sequelae” (Nederlandse Organisatie Voor …, priority 2004, dated 2011)",
  "system": "APOE*3Leiden mice",
  "assay": "Plasma parameters, body and liver weight after 1% PS-containing Western-type diet",
  "format": "in vivo",
  "description": "Sphingolipids: The three sphingolipids that represent the most abundant natural complex sphingolipid classes and the three of the simplest natural sphingolipids, the sphingoid bases that can be formed by enzymatic breakdown of complex sphingolipids in the intestine were used. Sphingomyelin (mainly N-palmitoyl-sphingosine-1-phosphocholine) from egg was obtained from Larodan Fine Chemicals (Stockholm, Sweden). Yeast-derived (semi)synthetic ceramide III (N-stearoyl-phytosphingosine), cerebroside (N-stearoyl-phytosphingosine-1-glucose) and phytosphingosine (PS) were from Cosmoferm BV (Delft, the Netherlands). Sphinganine and sphingosine were from Avanti Polar Lipids (Albaster, Ala.). Animals and diets: Heterozygous female APOE*3Leiden transgenic mice (Van Vlijmen et al. 1994. J. Clin. Invest 93:1403-1410.) (6 months old) were fed a Western-type diet (Hope Farms, Woerden, the Netherlands) containing 15% cocoa butter, 0.25% cholesterol, 1% corn oil, 40.5% sucrose, 20% acid casein, 10% corn starch and 5.95% cellulose (all w/w) for 5 weeks. The mice were allowed free access to food and water. Body weight and food intake were monitored weekly. In the first experiment (FIG. 2), the mice were randomized after these 5 weeks into 7 groups (n=6), based on plasma cholesterol, triglycerides, and body weight. Subsequently, the mice were fed for three weeks the same diet without or with 0.1% (w/w) phytosphingosine (PS), sphingosine, sphinganine, cerebroside, ceramide III, or sphingomyelin. Then, the sphingolipid dose was increased to 0.2% (w/w) for 3 weeks and finally to 0.4% (w/w) for 3 weeks. At randomization, and at 3, 6, and 9 weeks, tail vein blood samples were obtained after a 4 h-fast. In all subsequent experiments, female APOE*3Leiden transgenic mice (6 months old) were fed the Western-type diet for 5 weeks, and randomized as described. Subsequently, they were fed the Western-type diet for 5 weeks, or this diet supplemented with 1.0% (w/w) of PS, before being subjected to experimentation.\nPlasma parameters: Tail blood samples were collected in EDTA-coated cups, or in paraoxon-coated capillaries to prevent lipolysis as described in Zambon et al. 1993 (Zambon et al. 1993. J. Lipid Res. 34:1021-1028). Plasma lipid parameters were determined using commercial kits for total cholesterol (C) Chol R1 from Roche Diagnostics, Mannheim, Germany), non-esterified free fatty acids (FFA) (NEFA-C; Wako chemicals, Neuss, Germany), Total triglycerides (TG) (Triglyceride GPO-Trinder; Sigma, St. Louis, Mo.), β-hydroxybutyrate (β-HB; Sigma) and ALAT (Reflotron GPT; Roche). Serum amyloid A (SAA) was measured by ELISA (Biosource, Nivelles, Belgium) and fibrinogen by sandwich ELISA, as described in Koopman et al., 2005 (Koopman et al. 2005. Fibrinol Proteol 11:19). For lipoproteins fractionation, groupwise-pooled plasma was size-fractionated by fast protein liquid chromatography (FPLC) on a Superose 6 column (Äkta; Amersham Pharmacia Biotech, Uppsala, Sweden). Fractions were assayed for total C and TG as described. Hepatic VLDL-TG production: The rate of hepatic VLDL-TG production, de novo apoB secretion, and VLDL composition were determined in overnight-fasted mice. Mice were anaesthetized with vetranquil/fentanyl/midazolam i.p., and injected i.v. with 0.1 ml PBS containing 100 μCi Tran^35S-label™ (ICN Biomedicals, Irvine, Calif.) to measure the de novo apoB synthesis. After 30 min, the animals received a Triton WR1339 injection (Tyloxapol, Sigma; 500 mg/kg body weight in 100 μl saline) to prevent systemic lipolysis of newly-secreted hepatic VLDL-TG (Aalto-Setala et al. 1992. J. Clin. Invest 90:1889-1900.27) Blood samples were drawn at 0, 15, 30, 60, and 90 min after Triton WR1339 injection and plasma TG concentrations were determined. After 90 min, the animals were sacrificed and blood was collected by retro-orbital bleeding for isolation of VLDL. […]",
  "key": {"[1]": {"conditions": "1% PS in Western-type diet, 5 weeks"}, "[2]": {"conditions": "1% PS in Western-type diet, 5 weeks, 4 h-fasted"}},
  "data": [
    {"smiles": "CCCCCCCCCCCCCC[C@@H](O)[C@@H](O)[C@@H](N)CO", "note": "[PS, phytosphingosine]", "values": [
      {"measurement": "Effects on body weight or food intake", "setting": "1% (w/w) PS in Western-type diet, five weeks", "result": "No effects"},
      {"measurement": "Body weight, % Δ vs control", "setting": "[1]", "result": "n.s."},
      {"measurement": "HDL cholesterol (FPLC lipoprotein profile of pooled plasma)", "setting": "[1]", "result": "did not change"},
      {"measurement": "Liver weight, % Δ vs control", "setting": "[1]", "result": "−22", "unit": "%"},
      {"measurement": "Plasma free fatty acids, % Δ vs control", "setting": "[1]", "result": "−36", "unit": "%"},
      {"measurement": "Plasma total cholesterol, % Δ vs control", "setting": "[1]", "result": "−57", "unit": "%"},
      {"measurement": "Plasma triglycerides, % Δ vs control", "setting": "[1]", "result": "−58", "unit": "%"},
      {"measurement": "Plasma β-hydroxybutyrate, % Δ vs control", "setting": "[1]", "result": "n.s."},
      {"measurement": "Body weight", "setting": "[2]", "result": "22.6 ± 1.0", "unit": "g"},
      {"measurement": "Liver weight", "setting": "[2]", "result": "1.05 ± 0.08", "unit": "g"},
      {"measurement": "Plasma free fatty acids", "setting": "[2]", "result": "1.06 ± 0.14", "unit": "mmol/L"},
      {"measurement": "Plasma total cholesterol", "setting": "[2]", "result": "6.1 ± 1.1", "unit": "mmol/L"},
      {"measurement": "Plasma triglycerides", "setting": "[2]", "result": "1.19 ± 0.39", "unit": "mmol/L"},
      {"measurement": "Plasma β-hydroxybutyrate", "setting": "[2]", "result": "0.49 ± 0.39", "unit": "mmol/L"}
    ]}
  ]
}
